Reference: ChEMBL document CHEMBL5543162, “Discovery of a Novel Orally Bioavailable FLT3-PROTAC Degrader for Efficient Treatment of Acute Myeloid Leukemia and Overcoming Resistance of FLT3 Inhibitors” (J Med Chem, 2024)

Assays:
Assay type in all cases: functional, cell-based
MV4-11 = experiment: Antiproliferative activity against human MV4-11 cells expressing FLT3-ITD mutant incubated for 48 hrs by CCK8 assay; conditions: MV4-11, 48 h
MOLM-13 [1] = experiment: Antiproliferative activity against human MOLM-13 cells incubated for 48 hrs by CCK8 assay; conditions: MOLM-13, 48 h
MOLM-13 [2] = experiment: Antiproliferative activity against Quizartinib-resistant human MOLM-13 cells incubated for 48 hrs by CCK8 assay; conditions: MOLM-13, 48 h
MOLM-13 [3] = experiment: Antiproliferative activity against Sunitinib-resistant human MOLM-13 cells incubated for 48 hrs by CCK8 assay; conditions: MOLM-13, 48 h

Row | SMILES | IC50 (MV4-11) [nM] | IC50 (MOLM-13 [1]) [nM] | IC50 (MOLM-13 [2]) [nM] | IC50 (MOLM-13 [3]) [nM]
1 | Cc1c(NC(=O)CN2CCN(C3CCN(c4ccc5c(c4)C(=O)N(C4CCC(=O)NC4=O)C5=O)CC3)CC2)c[nH]c1/C=C1\C(=O)Nc2ccc(F)cc21 (centres undefined) | 106 | 335 | – | –
2 | Cc1c(NC(=O)CN2CCN(C(=O)CCCCCCCCCCCNc3cccc4c3C(=O)N(C3CCC(=O)NC3=O)C4=O)CC2)c[nH]c1/C=C1\C(=O)Nc2ccc(F)cc21 (centres undefined) | 372 | > 1000 | – | –
3 | Cc1c(NC(=O)CN2CCN(C(=O)CCCC(=O)NCCNc3cccc4c3C(=O)N(C3CCC(=O)NC3=O)C4=O)CC2)c[nH]c1/C=C1\C(=O)Nc2ccc(F)cc21 (centres undefined) | 230 | > 1000 | – | –
4 | Cc1c(NC(=O)CN2CCN(CCCCCCCCC(=O)Nc3cccc4c3C(=O)N(C3CCC(=O)NC3=O)C4=O)CC2)c[nH]c1/C=C1\C(=O)Nc2ccc(F)cc21 (centres undefined) | 231 | 299 | – | –
5 | Cc1c(NC(=O)CN2CCN(C(=O)CCCCCCCC(=O)NCCNc3cccc4c3C(=O)N(C3CCC(=O)NC3=O)C4=O)CC2)c[nH]c1/C=C1\C(=O)Nc2ccc(F)cc21 (centres undefined) | 170 | 358 | – | –
6 | CCN(CC)CCNC(=O)c1c(C)[nH]c(/C=C2\C(=O)Nc3ccc(F)cc32)c1C [SUNITINIB] | – | – | > 1000 | 1460
7 | CCc1nc(C(N)=O)c(Nc2ccc(N3CCC(N4CCN(C)CC4)CC3)c(OC)c2)nc1NC1CCOCC1 [GILTERITINIB] | 40.2 | 67.5 | 2320 | 10900
8 | Cc1ncsc1-c1ccc(CNC(=O)[C@@H]2C[C@@H](O)CN2C(=O)[C@H](NC(=O)CCCCCCCC(=O)N2CCN(CC(=O)Nc3c[nH]c(/C=C4\C(=O)Nc5ccc(F)cc54)c3C)CC2)C(C)(C)C)cc1 | 191 | > 1000 | – | –
9 | Cc1c(NC(=O)CN2CCN(C(=O)CCCCC(=O)NCCNc3cccc4c3C(=O)N(C3CCC(=O)NC3=O)C4=O)CC2)c[nH]c1/C=C1\C(=O)Nc2ccc(F)cc21 (centres undefined) | 201 | 657 | – | –

The next lines start with the values.

Row | IC50 (MV4-11) [nM] | IC50 (MOLM-13 [1]) [nM] | IC50 (MOLM-13 [2]) [nM] | IC50 (MOLM-13 [3]) [nM] | SMILES
10 | 168 | 487 | – | – | Cc1c(NC(=O)CN2CCN(C(=O)CCCCCC(=O)NCCNc3cccc4c3C(=O)N(C3CCC(=O)NC3=O)C4=O)CC2)c[nH]c1/C=C1\C(=O)Nc2ccc(F)cc21 (centres undefined)
11 | 130 | 276 | – | – | Cc1c(NC(=O)CN2CCN(CCCCCCCCCOc3cccc4c3C(=O)N(C3CCC(=O)NC3=O)C4=O)CC2)c[nH]c1/C=C1\C(=O)Nc2ccc(F)cc21 (centres undefined)
12 | 201 | 686 | – | – | Cc1c(NC(=O)CN2CCN(C(=O)CCOCCOCCNc3cccc4c3C(=O)N(C3CCC(=O)NC3=O)C4=O)CC2)c[nH]c1/C=C1\C(=O)Nc2ccc(F)cc21 (centres undefined)
13 | 288 | 533 | – | – | Cc1c(NC(=O)CN2CCN(C(=O)CCCCCCC(=O)NCCNc3cccc4c3C(=O)N(C3CCC(=O)NC3=O)C4=O)CC2)c[nH]c1/C=C1\C(=O)Nc2ccc(F)cc21 (centres undefined)
14 | 169 | 208 | – | – | Cc1c(NC(=O)CN2CCN(C(=O)CCCCCNc3cccc4c3C(=O)N(C3CCC(=O)NC3=O)C4=O)CC2)c[nH]c1/C=C1\C(=O)Nc2ccc(F)cc21 (centres undefined)
15 | 216 | > 1000 | – | – | Cc1ncsc1-c1ccc(CNC(=O)[C@@H]2C[C@@H](O)CN2C(=O)[C@@H](NC(=O)CCCCCC(=O)N2CCN(CC(=O)Nc3c[nH]c(/C=C4\C(=O)Nc5ccc(F)cc54)c3C)CC2)C(C)(C)C)cc1
16 | 194 | 336 | – | – | Cc1c(NC(=O)CN2CCN(CC3CCN(c4cccc5c4C(=O)N(C4CCC(=O)NC4=O)C5=O)CC3)CC2)c[nH]c1/C=C1\C(=O)Nc2ccc(F)cc21 (centres undefined)
